Source: patent publication US7939111B2, “Lingonberry extract, methods of preparing, and uses thereof” (Beijing Gingko-Group Biological Technology Co., Ltd., priority 2007, dated 2011)
Converted amounts (≈) assume the structure as drawn.

What was measured:
yeast = conditions: by activating Sir2 enzymatic expression; cited from earlier work
[1] = hydroxy radical scavenging, orthophenanthroline Fe2+ oxidation method; type: biochemical
Protocol: The first extract of lingonberry from Example 7, containing 5.2 wt % of anthocyanin, 22.3 wt % of proanthocyanin, and 0.5 wt % of resveratrol, was dissolved in double-distilled water and diluted into solutions in serial concentrations of 0.5, 0.25, 0.125, 0.0625, 0.03125, 0.015625, and 0.0078125 mg/ml. Ascorbic acid was likewise diluted to serial concentrations of 2, 1, 0.5, 0.25, 0.125, and 0.0625 mg/ml. The anti-oxidation effect of lingonberry extracts was confirmed by determining the hydroxyl radical (.OH) and the scavenging effect of the test drug on the hydroxy radical using the orthophenanthroline Fe^2+ oxidation method.
The total reaction volume was 4.7 ml, and thus the final concentrations of ascorbic acid solution were 0.851, 0.426, 0.213, and 0.106 mg/ml, while the final concentrations of lingonberry extract were 0.106, 0.053, 0.027, 0.013 mg/ml. Measurements were obtained for five samples in each group, and the scavenging rates of .OH were calculated and averaged. In order to verify the reliability of this method, ascorbic acid, a known .OH scavenging agent was used as a positive control when evaluating the scavenging effect of the lingonberry extract on hydroxy radicals during the experiment.
In the reaction system of these experiments, the aqueous solution of lingonberry extract could bind with hydroxy radicals generated in the Fenton reaction, thus reducing oxidation of Fe^2+ by hydroxy radicals. Its effect on scavenging hydroxy radicals was evaluated by determining the absorbance value of the reaction system.

IC50, hydroxy radical scavenging ([1]; orthophenanthroline Fe2+ oxidation method)	Compound	increase of life span (yeast)	•OH scavenging rate (d) ([1]; final concentration 0.106 mg/ml)	•OH scavenging rate (d) ([1]; final concentration 0.213 mg/ml)	•OH scavenging rate (d) ([1]; final concentration 0.426 mg/ml)	•OH scavenging rate (d) ([1]; final concentration 0.851 mg/ml)
–	Oc1ccc(C=Cc2cc(O)cc(O)c2)cc1 [resveratrol]	about 70%	–	–	–	–
307.8 µg/mL (≈ 1750 µM)	O=C1O[C@H]([C@@H](O)CO)C(O)=C1O [ascorbic acid]	–	24.44 ± 2.32	25.55 ± 2.10	40.49 ± 1.33	91.92 ± 0.77
